According to US20050138675A1, “Method for determining cardiotoxicity” (Pfizer Inc., priority 2003, published 2005):

System: cardiac ventricular tissue
Settings: at least 2-fold relative to control
Text: Male Sprague-Dawley rats weighing between 175-220 grams were used for all studies. Animals were purchased from Charles River Laboratories (Wilmington, Mass.) and allowed to acclimate for one week prior to use. All animals were given food and water ad libitum, and housed under a 12-hour light/12-hour dark cycle. The animals were housed in conventional plastic bottom cages (2 animals/cage) with corncob bedding. All dosing with test compounds was a single acute injection by the intraperitoneal route, in normal saline, with a 20×¾″ disposable needle attached to a 1 cc disposable syringe. These animals were euthanized by a 150 mg/kg intraperitoneal injection of Nembutal prior to collection of heart tissue.
Dose range-finding studies were completed to determine a xenobiotic dose that would produce signs of cardiotoxicity such as elevated serum troponins, creatine kinase isoenzymes, or histo-pathological tissue changes, without causing overt general toxicity. Comprehensive literature reviews were also used to select doses. […] Six or twenty-four hours later, animals were euthanized with a lethal intraperitoneal dose of Nembutal solution. Biopsy punches were used to remove approximately […] of ventricular tissue for subsequent RNA isolation and gene expression analysis. Total RNA was isolated from the samples using a Qiagen RNAeasy protocol (Valencia, Calif.). In this procedure, RNA is captured on a solid phase column, then washed with a series of solutions to purify the sample. In the last step, RNA is eluted from the column with RNAse free water. RNA quality and quantity was then checked with an optical density reading at 260/280 wavelengths, and an aliquot of RNA was run on an RNA denaturing gel. High quality RNA should have an OD 260/280 ratio of 2, and the denaturing gel should show two distinct ribosomal RNA bands.
Synthesis of double stranded cDNA from the total RNA isolated was the first step, which involves the incorporation of a T7-(dT)24 primer into the sequence, with subsequent second strand synthesis which yields a double stranded template for the in vitro transcription (IVT) reaction. The resulting cDNA was run in an IVT reaction using an Enzo BioArray High Yield RNA transcript labeling kit (Enzo Life Sciences, Inc. Farmingdale, N.Y.), during which a biotin label was incorporated into the complementary RNA (cRNA) sequence. This step also amplified the product by generating approximately 40 transcripts per cDNA substrate. After the IVT reaction, cRNA was fragmented by metallic fragmentation, and a small portion of the sample was run on a 1% agarose gel in order to visualize the fragmentation pattern. The range should be between 35 to 200 bases. Four samples from each group showing the highest purity and quality results were pooled for hybridization onto one Genechip to greatly reduce experimental costs. Genes of interest that are found through the use of GeneChip technology, will then be verified using real time PCR techniques on each individual sample.
Next, the cRNA was hybridized to the RG U34A GeneChip oligonucleotide array (Affymetrix Inc, Santa Clara, Calif.). An aliquot of the fragmented cRNA was mixed with control components, injected into the array, and the filled array was allowed to incubate at 45° C. for 16 hours in an Affymetrix oven, which rotates the samples continuously during incubation. The next morning, the array was taken from the oven and the sample was removed and frozen at −80° C. for possible future use. That is, in the event of a defective chip, the hybridization solution can be re-used. The array chamber was then filled with a wash buffer, and placed in an automated fluid exchange system. The fluidics station controls the washing and staining of the probe array with the fluorescently labeled streptavidin stain solution and an antibody solution. After the staining process was complete the chips were scanned by an Agilent GeneArray laser scanner (Agilent, Palo Alto, Calif.).

[1] = 6 hour after single i.p. dose (DIG 20, DOX 30, ISO 70, LPS 10 mg/kg)
[2] = 24 hour after single i.p. dose (DIG 20, DOX 30, ISO 70, LPS 10 mg/kg)

lipopolysaccharide [LPS]
up: AA957003 intercellular calcium-binding protein expression, up or down [1] | AI176456 metallothionein expression, up or down [1] | J02722 heme oxygenase (hsp32) expression, up or down [1] | X89225 L-like neutral amino acid transport protein expression, up or down [1] | AA892801 EST expression, up or down [2] | AB005743 fatty acid transporter expression, up or down [2] | AI008852 EST expression, up or down [2] | AI170776 GRB2 expression, up or down [2] | D85183 SHPS-1 expression, up or down [2] | M57276 leukocyte antigen MRC-OX44 expression, up or down [2] | U14950 synapse-associated protein 97 expression, up or down [2] | U68272 interferon gamma receptor expression, up or down [2] | X71127 complement protein C1q beta chain expression, up or down [2]
down: X01118 gamma-rANP expression, up or down [1] | AA899106 cyclin D2 expression, up or down [2] | AF016296 neuropilin expression, up or down [2] | AI638989 EST expression, up or down [2] | X52140 integrin alpha-1 expression, up or down [2]
